Laboratory results published in patent US20210275621A1, “COMPOSITION FOR PREVENTING, ALLEVIATING, IMPROVING, OR TREATING THE FEMALE HORMONE CONTROLLING DISORDER SYNDROME OR SYMPTOMS COMPRISING GREEN TEA EXTRACT WHICH HAS MODIFIED AMOUNTS OF INGREDIENTS” (AMOREPACIFIC CORPORATION, priority 2020, published 2021).

Experiments:
Type in all cases: cell-based
[1] = target: T1, estrogen receptor ERα (Homo sapiens, UniProt P03372); assay: Human ERα/β reporter assay panel (ERE-luc), ERα; conditions: 1 μg/mL, 24 hours; FIG. 6
T1 construct: host or cells: reporter cells included in the purchased panel
T1 sequence (P03372 1-595): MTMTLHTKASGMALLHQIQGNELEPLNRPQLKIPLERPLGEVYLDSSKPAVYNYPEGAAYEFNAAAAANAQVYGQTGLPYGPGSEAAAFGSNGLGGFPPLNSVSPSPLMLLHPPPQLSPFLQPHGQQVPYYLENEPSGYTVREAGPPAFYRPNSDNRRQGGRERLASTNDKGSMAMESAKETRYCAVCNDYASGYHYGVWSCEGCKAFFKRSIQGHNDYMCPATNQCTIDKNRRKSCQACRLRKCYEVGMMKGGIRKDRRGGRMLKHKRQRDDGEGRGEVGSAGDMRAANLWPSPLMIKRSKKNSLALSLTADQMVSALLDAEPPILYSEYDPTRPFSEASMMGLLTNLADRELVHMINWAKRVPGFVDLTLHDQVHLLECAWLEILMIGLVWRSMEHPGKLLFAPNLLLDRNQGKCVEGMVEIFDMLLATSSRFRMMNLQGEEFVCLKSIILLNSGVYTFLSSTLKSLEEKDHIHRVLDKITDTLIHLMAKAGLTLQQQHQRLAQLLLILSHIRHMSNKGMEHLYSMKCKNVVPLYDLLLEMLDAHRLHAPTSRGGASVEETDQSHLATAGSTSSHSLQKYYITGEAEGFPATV
Experimental: (§1) For evaluation of the effect of activating estrogen receptors alpha and beta (ERα/β) of the notified green tea extract, the high-temperature-processed green tea extract and theanine depending on the weight ratio of GCG:EGCG, a human ERα/β reporter assay panel (IB00421-48P, Indigo Bioscience) was treated with 20 μg/mL sample 1 (notified green tea extract), 20 μg/mL sample 2 (high-temperature-processed green tea extract), 20 μg/mL sample 3, or 20 μg/mL sample 4 of Preparation Example 1 or 2, or 1 μg/mL theanine of Preparation Example 3, for 24 hours and then the increased activity of the estrogen receptors ERα and ERβ was analyzed.
(§2) Specifically, ERα and ERβ are overexpressed and the ERE-luc reporter gene is included in the cells included in the human ERα/β reporter assay panel. If the activity of the estrogen receptors is increased upon treatment with the test substance, ERα and ERβ are bound to ERE and the expression of luciferase is induced. Therefore, the activity of ERα and ERβ can be determined by measuring light emission from the cells.

[2] = target: T2, estrogen receptor ERβ (Homo sapiens, UniProt Q92731); assay: Human ERα/β reporter assay panel (ERE-luc), ERβ; conditions: 1 μg/mL, 24 hours; FIG. 6
T2 construct: host or cells: reporter cells included in the purchased panel
Experimental: as §1, §2

[3] = system: MCF-7 cells (breast cancer cells); assay: MCF-7 breast cancer cell growth (cell counting); conditions: 100 pM, 48 hours; FIG. 7

T2 sequence (Q92731 whole entry): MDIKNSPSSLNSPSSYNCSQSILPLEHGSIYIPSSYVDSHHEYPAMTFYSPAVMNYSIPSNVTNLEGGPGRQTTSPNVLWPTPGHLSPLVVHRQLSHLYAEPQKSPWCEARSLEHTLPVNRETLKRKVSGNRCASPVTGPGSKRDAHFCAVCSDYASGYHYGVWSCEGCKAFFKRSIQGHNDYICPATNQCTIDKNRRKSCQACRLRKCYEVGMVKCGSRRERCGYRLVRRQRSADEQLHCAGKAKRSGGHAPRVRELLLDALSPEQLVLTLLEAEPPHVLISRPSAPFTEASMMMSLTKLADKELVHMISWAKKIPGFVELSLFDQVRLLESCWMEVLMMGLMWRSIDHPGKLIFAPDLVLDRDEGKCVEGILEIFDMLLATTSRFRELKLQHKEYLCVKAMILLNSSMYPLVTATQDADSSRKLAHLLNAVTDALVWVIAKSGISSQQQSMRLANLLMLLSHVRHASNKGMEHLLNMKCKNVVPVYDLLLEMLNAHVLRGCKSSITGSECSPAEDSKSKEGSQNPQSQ

| Compound | activity of estrogen receptor ERα (luciferase activity) [1] | activity of estrogen receptor ERβ (luciferase activity) [2] | growth of MCF-7 cells (number of cells) [3] |
| --- | --- | --- | --- |
| CCNC(=O)CC[C@H](N)C(=O)O [theanine, L-theanine] | no receptor-activating effect | no receptor-activating effect |  |
| C[C@]12CC[C@@H]3c4ccc(O)cc4CC[C@H]3[C@@H]1CC[C@@H]2O [17b-estradiol] |  |  | promoted significantly |
